Laboratory results as given in patent US6514942B1, “Methods and compositions for stimulating T-lymphocytes” (The Board of Regents, The University of Texas System, priority 1995, dated 2003).
Entries after “also recorded” stand apart in the source; their conditions may differ.

How the values were obtained:
HLA-A2 of T2 cells [1] = target: T1, HLA-A2 of T2 cells (Homo sapiens, UniProt P04439, D140Y/D185E/D98H/E176V/E277Q/G131W/G231S/I119V/I121R/I166T/I218V/L300P/L318F/N151K/N90K/P208A/P217A/Q86G/Q94H/R138H/R169H/T345S); assay: Reactivity of MA2.1 mAb with T2 cells after culture with peptide (immunofluorescence, FL1); format: cell-based; conditions: peptide 50 μg/ml, overnight culture in IMDM-FCS
T1 construct: cell surface expression of HLA-A2 is lower (30-40%) than in normal LBL lines transfected with HLA-A2; endogenous in cells; host or cells: T2 (transport deletion mutant) human lymphoblastoid cells, obtained from Dr. Peter Creswell
Experimental: FIG. 5A. Effects of HER-2 peptides on reactivity of MA2.1 mAb with T2 cells. Fluorescence analysis and determination of FL1 were performed as described (Stauss et al., 1992). Peptides were added to T2 cells at 50 μg/ml (final concentration). After overnight culture, in IMDM-FCS, cells were washed and the levels of HLA-A2 expression were determined using HLA-A2 specific mAb.
(§1) mAbs to CD3 (OKT3-FITC), CD4 (OKT4-FITC) and CD8 (OKT8-FITC) were obtained from Ortho Diagnostic (Ortho, Raritan, N.J.), mAb W6/32 (anti-HLA, -A, -B, -C) from Dako (Dako-Dakopatts, Denmark); HLA-A2 reacting mAb BB7.2 and MA2.1 from ATCC. Immunofluorescence studies were performed as described in Example 1.
(§2) To determine whether these peptides and longer analogs affect HLA-A2 conformation as an indication of HLA-A2 binding, the effects of HER-2 peptides on the reactivity of conformationally dependent mAb MA2.1 and BB.7.2 were examined with HLA-A2 of T2 cells. The human cell line T2 has a defect affecting endogenous peptide loading of MHC class I molecules. As a consequence, cell surface expression of HLA-A2 is lower (30-40%) than in normal LBL lines transfected with HLA-A2 (e.g., C1R) but the reactivity of MA2.1 and BB.7.2 mAb is increased when certain HLA-A2 binding peptides are added to the culture medium (Anderson et al., 1993). Although most human MHC class I molecules cannot be induced at the low temperatures used for their murine counterparts because of fundamental structural differences between human and mouse class I (Anderson et al., 1993), the fact that they express few endogenous (mainly signal) peptides (Zweerink et al., 1993) increases the sensitivity of detection of peptide-HLA-A2 interaction.

HLA-A2 of T2 cells [2] = target: T1, HLA-A2 of T2 cells; assay: Reactivity of BB7.2 mAb with T2 cells after culture with peptide (immunofluorescence, FL1); format: cell-based; conditions: peptide 50 μg/ml, overnight culture
Experimental: FIG. 5B. Effects of HER-2 peptides on reactivity of BB7.2 mAb with T2 cells. Studies were performed as described in the legend to FIG. 5A.
as §1, §2

[3] = system: HLA-A2- CTL from donors 14 and 15; assay: Presentation of peptides by HLA-A2+ transfectants to HLA-A2- CTL; format: cell-based, human; conditions: CTL induced with the same peptides
[4] = system: OVA-16 (HLA-A2+, HER-2high) ovarian tumor; assay: Cold target inhibition of OVA-16 lysis by 41.CD8+ CTL with peptide-pulsed C1R:A2 cells; format: cell-based, human; conditions: cold:hot 2:1, E:T 10:1, 4- and 20-h assays
Experimental: (§3) FIG. 4A. Target specificity of the 41.CD8^+ CTL were tested for the ability to lyse 5^1Cr-labeled OVA-16 at an E:T ratio of 10:1. C1R:A2 cells (A2.1) were incubated with synthetic peptides (D125, C43, C85), washed, and used in cold target inhibition studies at a cold:hot ratio of 2:1. Cytotoxicity studies were performed for 5 hr. Results represent the mean of three determinations. The variability between samples was less than 10%. The differences between determination are statistically significant (P<0.03) as determined by Student's t test. Percentage inhibition is indicated in parentheses.
as §3, with “FIG. 4B.” for “FIG. 4A.”, “lyse ^51Cr-labeled” for “lyse 5^1Cr-labeled”, “for 20” for “for 5”
Tumor cells and fibroblasts were labeled with 200 μCi of ^51Cr (Na^51CrO4; Amersham, Arlington Heights, Ill.) for 90 min at 37° C. (Ioannides et al., 1991). Lymphoblastoid cells and HLA-A2 transfectants were labeled overnight in RPMI-FCS, then washed three times and incubated with effector cells in RPMI-FCS in an incubator with 5%. CO2 (Bednarek et al., 1991; Gammon et al., 1992). When peptide recognition was determined, targets were incubated with 25 μM of peptides overnight during ^51Cr labeling or with 10 μM peptide for 2 h at 37° C. in RPMI-FCS then washed three times before being incubated with effector cells. Separate controls for spontaneous and total lysis were made for each peptide-pulsed target (Ioannides et al., 1991; Bednarek et al., 1991; Gammon et al., 1992). After 4-5 h, 100 μl of supernatant was collected and counted. To determine maximum lysis in 20-h assays, plates were left undisturbed in the incubator and the supernatant was collected after overnight incubation. For cold target inhibition studies, C1R:A2 cells were preincubated with HER-2 or control peptides overnight, then washed and admixed with ^51Cr-labeled targets at 2:1 and 6:1 (cold:hot targets) ratios. Percentage lysis was calculated from the formula: 100×[(E−S)/(T−S)], where E is experimental release, S is release in the absence of CTL, and T is release in 2 M HCl.
To confirm that the 41.CD8^+ CTL line recognizes epitopes on HER-2^high tumors contained on peptides used for stimulation, cold target inhibition studies were performed. […]

FL1 of T2 cells stained with MA2.1 mAb (HLA-A2 of T2 cells [1]) | FL1 of T2 cells stained with BB7.2 mAb (HLA-A2 of T2 cells [2]) | Sequence | cross-presentation to HLA-A2- CTL [3] | inhibition of tumor lysis by peptide-pulsed cold targets [4]
significant increase in FL1 | even higher increase in FL1 | ELVSEFSRV [Peptide C84, HER-2:971-979 analog, Met(P9) substituted by Val] | did not cross-present | inhibit HER-2^high tumor lysis; also recorded: specifically inhibit tumor lysis
failed to significantly increase FL1 | – | RFRELVSEFSRMAR [Peptide C43, HER-2:968-981 14mer peptide] | did not cross-present | inhibited the lysis of the OVA-16 tumor; also recorded: inhibit HER-2^high tumor lysis
